Measured values as given in publication PMC4027965 (Molecular imaging, 2013).

Assay: in vivo
Details: female, athymic nude, mouse, liver, iv, 3.7 MBq (100 uCi), total radioactivity

## N=C(N)NCCC[C@@H]1NC(=O)[C@H](CSC2CC(=O)N(CCNC(=O)CCCC(=O)Nc3ccc(C4=NNC(c5ccccn5)=C5CCC(OCCF)CCCC45)nc3)C2=O)NC(=O)[C@@H](Cc2ccc(O)cc2)NC(=O)[C@H](CC(=O)O)NC(=O)CNC1=O (stereo partly shown) [^18F-TTM-RGD]
  tissue uptake at 2 h: 2.35 ± 0.24 %ID/g
